As usually defined, the IC50 is the concentration that gives 50% inhibition. Read a low IC50 as greater potency.

The structures appear in SMILES notation.

The target of this assay is human vanin-1 (Homo sapiens (Human), UniProt O95497). The assay can be described thus: Human Vanin-1 Enzyme Assay 1. Type of assay: biochemical. As to conditions: 25 pM human vanin-1, 50 uM pantetheine 7-amino-4-trifluoromethylcoumarin substrate. How it is done: Human Vanin-1Enzyme Assay 1.
human vanin-1, sequence (O95497 22-491): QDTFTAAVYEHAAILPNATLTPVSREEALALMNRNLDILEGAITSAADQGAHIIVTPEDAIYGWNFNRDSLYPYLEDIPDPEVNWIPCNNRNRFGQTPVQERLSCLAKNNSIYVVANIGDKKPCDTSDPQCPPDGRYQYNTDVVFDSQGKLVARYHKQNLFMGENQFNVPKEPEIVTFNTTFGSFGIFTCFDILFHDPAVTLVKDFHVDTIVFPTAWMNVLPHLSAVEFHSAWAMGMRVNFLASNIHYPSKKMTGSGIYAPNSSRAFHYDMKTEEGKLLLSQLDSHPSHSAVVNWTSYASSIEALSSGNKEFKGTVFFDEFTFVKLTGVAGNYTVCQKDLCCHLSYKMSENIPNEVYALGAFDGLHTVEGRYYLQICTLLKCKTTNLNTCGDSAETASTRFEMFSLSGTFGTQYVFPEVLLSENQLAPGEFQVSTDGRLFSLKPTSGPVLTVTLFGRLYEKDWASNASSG
The in vitro assay measures enzymatic cleavage of the fluorescently-labeled vanin substrate, pantetheine 7-amino-4-trifluoromethylcoumarin, by human vanin-1.
The vanin-1 protein was prepared in-house from a construct expressing the extracellular domain of human vanin-1 (GenBank ID NM_004666) preceded N-terminally by the honey bee melittin signal peptide, a GSG linker sequence, a His6× tag and a FLAG tag. The secreted, soluble enzyme was purified from the conditioned medium from a CHO cell line stably expressing the resulting protein. Enzyme purification was performed through sequential Ni NTA and size-exclusion chromatography steps.
Intermediate concentrations were prepared by diluting in DMSO in a four-fold series for a total of 11 data points.
To begin the assay 100 nL was transferred from the compound plate to the assay plate. Next, 15 μL of the vanin-1 working solution were transferred to the assay plate. The inhibitor and enzyme were incubated at room temperature for 30 minutes. The enzyme reaction was then initiated by the addition of 5 μL of 200 μM pantetheine 7-amino-4-trifluoromethylcoumarin prepared in assay buffer. […] The final concentration of DMSO was 0.5%.
Regarding `O=C(c1cnc(NCc2cccnc2)nc1)N1C[C@H]2CCC[C@@H](O)[C@H]2C1` (relative stereo) [Example 3], the IC50 is 1.69 nM.
The result for `O=C(c1cnc(NC2(c3cncnc3)CC2)nc1)N1C[C@@H]2CCCC[C@]2(CO)C1` (relative stereo) [Example 61] reads 2.51 nM; that for `C[C@H]1CN(C(=O)c2cnc(NC3(c4cncnc4)CC3)nc2)C[C@]1(C)CO` (relative stereo) [Example 62], 3.92 nM; that for `O=C(c1cnc(NC2(c3cncnc3)CC2)nc1)N1CCC(C(F)(F)F)C1` (single isomer, unassigned) [Example 194], 20.2 nM.
Turning to `N#CC1CCCN(C(=O)c2cnc(NC3(c4cncnc4)CC3)nc2)C1` (single isomer, unassigned) [Example 197], half-maximal inhibition (IC50) was put at 5.22 nM.
To `CS(=O)(=O)C1CCCN(C(=O)c2cnc(NC3(c4cncnc4)CC3)nc2)C1` (single isomer, unassigned) [Example 199] belongs 1180 nM; to `CCC1(CO)CCN(C(=O)c2cnc(NC3(c4cncnc4)CC3)nc2)C1` (single isomer, unassigned) [Example 201], 0.582 nM; to `CCC1(CO)CCN(C(=O)c2cnc(NC3(c4cncnc4)CC3)nc2)C1` (single isomer, unassigned) [Example 202], 14.3 nM.
To `O=C(c1cnc(NCc2cccnc2)nc1)N1CCC2(CCOCC2)C1` [Example 1] belongs 1.31 nM; to `O=C(c1cnc(NCc2cccnc2)nc1)N1CC2(CCOCC2)C1` [Example 2], 1.33 nM; to `CCC1(CO)CCN(C(=O)c2cnc(NCc3cccnc3)nc2)C1` (stereo not shown) [Example 4], 8.58 nM.
The result for `O=C(c1cnc(NCc2cccnc2)nc1)N1CC(O)(C2CC2)C1` [Example 5] reads 16 nM; that for `C[C@H]1CN(C(=O)c2cnc(NCc3cccnc3)nc2)C[C@@H]1CO` [Example 6], 17.9 nM; that for `O=C(c1cnc(NCc2cccnc2)nc1)N1CCC(C(F)(F)F)C1` (stereo not shown) [Example 7], 17.9 nM.
`O=C(c1cnc(NCc2cccnc2)nc1)N1CCn2ccnc2C1` [Example 8] came in with an IC50 of 37.1 nM.
`CC1(O)CCN(C(=O)c2cnc(NCc3cccnc3)nc2)CC1` [Example 9] yielded an IC50 of 48.1 nM.
Take `CCOC1CCN(C(=O)c2cnc(NCc3cccnc3)nc2)C1` (stereo not shown) [Example 10]: the IC50 was 75.9 nM.
The result for `O=C(c1cnc(NCc2cccnc2)nc1)N1CCC(CO)C1` (stereo not shown) [Example 11] reads 81.7 nM; that for `CO[C@@H]1[C@@H]2CC[C@H]1CN(C(=O)c1cnc(NCc3cccnc3)nc1)C2` [Example 12], 94.1 nM; that for `NC(=O)C1CCCN(C(=O)c2cnc(NCc3cccnc3)nc2)C1` (stereo not shown) [Example 13], 101 nM.
`N#CCC1CCCCN1C(=O)c1cnc(NCc2cccnc2)nc1` (stereo not shown) [Example 14]: it took 156 nM to reach half-maximal inhibition (IC50).
`CC1(CO)CCN(C(=O)c2cnc(NCc3cccnc3)nc2)CC1` [Example 15] gave an IC50 of 220 nM.
The result for `O=C(c1cnc(NCc2cccnc2)nc1)N1CC(O)C1` [Example 16] reads 323 nM; that for `O=C(c1cnc(NCc2cccnc2)nc1)N1CCC(F)(CO)CC1` [Example 17], 328 nM.
Molecule `O=C(c1cnc(NCc2cccnc2)nc1)N1C[C@@H]2[C@@H](CO)[C@@H]2C1` [Example 18] displayed a half-inhibitory concentration (IC50) of 385 nM.
To `O=C(c1cnc(NCc2cccnc2)nc1)N1Cc2ccccc2C1` [Example 19] belongs 407 nM.
The result for `O=C(c1cnc(NCc2cccnc2)nc1)N1CCOCC(O)C1` (stereo not shown) [Example 20] reads 453 nM.
The result for `O=C(c1cnc(NCc2cccnc2)nc1)N1CCC(O)CC1` [Example 21] reads 528 nM.
In the case of `O=C(c1cnc(NCc2cccnc2)nc1)N1CCCC(O)C1` (stereo not shown) [Example 22], half-maximal inhibition (IC50) required 559 nM.
Consider `CC(=O)NC1CCCN(C(=O)c2cnc(NCc3cccnc3)nc2)C1` (stereo not shown) [Example 23], for which 613 nM corresponded to half-maximal inhibition (IC50).
The result for `CC(=O)N1CCN(C(=O)c2cnc(NCc3cccnc3)nc2)CC1` [Example 24] reads 749 nM; that for `O=C(c1cnc(NCc2cccnc2)nc1)N1CCC(O)C1` (stereo not shown) [Example 25], 1040 nM.
To `CC1(O)CCCN(C(=O)c2cnc(NCc3cccnc3)nc2)C1` (stereo not shown) [Example 26] belongs 1230 nM; to `O=C(c1cnc(NCc2cccnc2)nc1)N1CC2CCC(CC2)C1` [Example 27], 1370 nM; to `O=C(c1cnc(NCc2cccnc2)nc1)N1[C@@H]2CC[C@H]1C[C@@H](O)C2` [Example 28], 1550 nM.
To `NC(=O)C1CCN(C(=O)c2cnc(NCc3cccnc3)nc2)CC1` [Example 29] belongs 1920 nM; to `NC(=O)CC1CCN(C(=O)c2cnc(NCc3cccnc3)nc2)CC1` [Example 30], 2170 nM.
Molecule `O=C(c1cnc(NCc2cccnc2)nc1)N1CCCC2(COC2)C1` [Example 31] displayed an IC50 of 3090 nM.
In the case of `NC(=O)[C@@H]1CCCN1C(=O)c1cnc(NCc2cccnc2)nc1` [Example 32], it took 20000 nM to reach half-maximal inhibition (IC50).
`O=C(c1cnc(NC2(c3cncnc3)CC2)nc1)N1C[C@H]2CC[C@@H](C1)O2` [Example 33]: the IC50 is 108 nM.
To `O=C(c1cnc(NC2(c3cncnc3)CC2)nc1)N1CCC2(CCO2)CC1` [Example 34] belongs 47.2 nM; to `O=C(c1cnc(NC2(c3cncnc3)CC2)nc1)N1CCN2C[C@@H](F)C[C@H]2C1` [Example 35], 5.42 nM.
To `CCC1COC(=O)N1C1CCN(C(=O)c2cnc(NC3(c4cncnc4)CC3)nc2)CC1` (stereo not shown) [Example 36] belongs 1000 nM.
To `CCC1(CC)CCN(C(=O)c2cnc(NC3(c4cncnc4)CC3)nc2)C1` [Example 37] belongs 0.504 nM; to `CC1COCCN(C(=O)c2cnc(NC3(c4cncnc4)CC3)nc2)C1` (stereo not shown) [Example 38], 62.6 nM; to `CC1CCCN(C(=O)c2cnc(NC3(c4cncnc4)CC3)nc2)C1` (stereo not shown) [Example 39], 9.44 nM.
The molecule `CC(C)[C@H]1C[C@@H](O)CN(C(=O)c2cnc(NC3(c4cncnc4)CC3)nc2)C1` [Example 40] showed a half-maximal inhibitory concentration (IC50) of 26.9 nM.
In turn, `O=C(c1cnc(NC2(c3cncnc3)CC2)nc1)N1CCN2CCCCCC2C1` (stereo not shown) [Example 41] yielded an IC50 of 45 nM.
To `O=C(c1cnc(NC2(c3cncnc3)CC2)nc1)N1CCCOCC1` [Example 42] belongs 35.1 nM.
`O=C(c1cnc(NC2(c3cncnc3)CC2)nc1)N1CCC(c2cc[nH]n2)C1` (stereo not shown) [Example 43] showed an IC50 of 1.35 nM.
Molecule `C[C@@H]1CN(C(=O)c2cnc(NC3(c4cncnc4)CC3)nc2)C[C@H](C)C1O` (stereo partly shown) [Example 44] came in with an IC50 of 2270 nM.
The molecule `O=C(c1cnc(NC2(c3cncnc3)CC2)nc1)N1CCCC[C@H]1CO` [Example 45] displayed an IC50 of 1850 nM.
For the molecule `CCC1(C)CCN(C(=O)c2cnc(NC3(c4cncnc4)CC3)nc2)CC1` [Example 46], the IC50 was determined as 6.29 nM.
The result for `C[C@H]1CCCN1C(=O)c1cnc(NC2(c3cncnc3)CC2)nc1` [Example 47] reads 29.6 nM; that for `O=C(c1cnc(NC2(c3cncnc3)CC2)nc1)N1C[C@@H](F)C[C@@H]1CO` [Example 48], 20000 nM; that for `O=C(c1cnc(NC2(c3cncnc3)CC2)nc1)N1CCC2(CCCC2)CC1` [Example 49], 7.5 nM.
To `O=C(c1cnc(NC2(c3cncnc3)CC2)nc1)N1CCC2(CCCCO2)CC1` [Example 50] belongs 19.9 nM; to `CO[C@H]1CCN(C(=O)c2cnc(NC3(c4cncnc4)CC3)nc2)C1` [Example 51], 97.5 nM.
Take `O=C(c1cnc(NC2(c3cncnc3)CC2)nc1)N1CCOC2(CCCC2)C1` [Example 52]: the IC50 worked out at 60.3 nM.
With `O=C(c1cnc(NC2(c3cncnc3)CC2)nc1)N1C[C@@H](CO)[C@H](C(F)(F)F)C1` [Example 53], 12.2 nM corresponded to half-maximal inhibition (IC50).
To `CC1CC2(CCN(C(=O)c3cnc(NC4(c5cncnc5)CC4)nc3)C2)CC(C)O1` (stereo not shown) [Example 54] belongs 0.283 nM; to `C[C@H]1COCCN1C(=O)c1cnc(NC2(c3cncnc3)CC2)nc1` [Example 55], 2520 nM.
To `O=C(c1cnc(NC2(c3cncnc3)CC2)nc1)N1CCC2(CCCO2)CC1` [Example 56] belongs 24.9 nM; to `CN1CC2(CCN(C(=O)c3cnc(NC4(c5cncnc5)CC4)nc3)CC2)OC1=O` [Example 57], 611 nM.
To `C[C@@H]1CN(C(=O)c2cnc(NC3(c4cncnc4)CC3)nc2)[C@H](C)CO1` [Example 58] belongs 116 nM.
The molecule `O=C(c1cnc(NC2(c3cncnc3)CC2)nc1)N1CCC(C(O)C(F)(F)F)CC1` (stereo not shown) [Example 60] came in with an IC50 of 2850 nM.
As to `O=C(c1cnc(NC2(c3cncnc3)CC2)nc1)N1CCC(C(F)(F)F)CC1` [Example 63], the IC50 was 421 nM.
On to `O=C(c1cnc(NC2(c3cncnc3)CC2)nc1)N1CC2C(C1)C2C(F)(F)F` (stereo not shown) [Example 64], for which the IC50 was determined as 100 nM.
On to `Cc1cc(C2CCN(C(=O)c3cnc(NC4(c5cncnc5)CC4)nc3)C2)[nH]n1` (stereo not shown) [Example 65], for which inhibition was half-maximal at 1.82 nM (IC50).
To `O=C(c1cnc(NC2(c3cncnc3)CC2)nc1)N1CCC[C@H]1CO` [Example 66] belongs 231 nM; to `C[C@@H]1CN(C(=O)c2cnc(NC3(c4cncnc4)CC3)nc2)C[C@H](C)O1` [Example 67], 4240 nM.
To `O=C(c1cnc(NC2(c3cncnc3)CC2)nc1)N1CCC(F)CC1` [Example 68] belongs 8.13 nM.
Regarding `O=C(c1cnc(NC2(c3cncnc3)CC2)nc1)N1CC2CCCC2C1` (stereo not shown) [Example 69], the IC50 was determined as 1.85 nM.
